Patent US12552826B2, “PRMT5 inhibitors” (Merck Sharp & Dohme LLC, priority 2018, dated 2026)

These compounds were tested against T1, PRMT5 (Homo sapiens, UniProt O14744) (assay: PRMT5 Cell Target Engagement (TE) Assay). Conditions: MCF-7 cells, 3 days treatment, nuclear SDMA by high content imaging.
T1 construct: endogenous in cells; host or cells: MCF-7
Assay type: cell-based
In short: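 MCF-7 cells seeded 5 h, then treated 3 days at 37 °C with 10-point 1:3 dilutions from 10000 nM. Fixed cells immunostained for SDMA with AF488 secondary; nuclear intensity imaged per cell and expressed as % inhibition vs DMSO. EC50 from 4-parameter robust fit.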

T1 sequence (O14744 whole entry): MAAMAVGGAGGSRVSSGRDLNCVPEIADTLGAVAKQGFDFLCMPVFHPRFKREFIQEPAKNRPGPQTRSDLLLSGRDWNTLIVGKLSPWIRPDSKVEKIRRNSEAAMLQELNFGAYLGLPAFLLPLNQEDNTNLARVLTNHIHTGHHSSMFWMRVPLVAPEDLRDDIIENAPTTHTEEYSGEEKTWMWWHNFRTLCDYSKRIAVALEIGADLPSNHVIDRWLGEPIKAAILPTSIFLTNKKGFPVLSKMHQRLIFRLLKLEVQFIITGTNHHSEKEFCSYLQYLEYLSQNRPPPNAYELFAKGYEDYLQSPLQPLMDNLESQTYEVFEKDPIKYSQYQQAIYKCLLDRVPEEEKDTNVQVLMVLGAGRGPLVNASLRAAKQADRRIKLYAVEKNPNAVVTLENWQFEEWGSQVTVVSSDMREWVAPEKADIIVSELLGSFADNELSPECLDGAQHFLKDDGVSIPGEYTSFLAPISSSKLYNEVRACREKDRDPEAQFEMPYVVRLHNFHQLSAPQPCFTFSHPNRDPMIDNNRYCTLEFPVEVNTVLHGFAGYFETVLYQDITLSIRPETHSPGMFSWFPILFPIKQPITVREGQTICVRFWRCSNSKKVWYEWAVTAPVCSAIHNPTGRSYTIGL
T1 sequence (Q9BQA1 whole entry partner): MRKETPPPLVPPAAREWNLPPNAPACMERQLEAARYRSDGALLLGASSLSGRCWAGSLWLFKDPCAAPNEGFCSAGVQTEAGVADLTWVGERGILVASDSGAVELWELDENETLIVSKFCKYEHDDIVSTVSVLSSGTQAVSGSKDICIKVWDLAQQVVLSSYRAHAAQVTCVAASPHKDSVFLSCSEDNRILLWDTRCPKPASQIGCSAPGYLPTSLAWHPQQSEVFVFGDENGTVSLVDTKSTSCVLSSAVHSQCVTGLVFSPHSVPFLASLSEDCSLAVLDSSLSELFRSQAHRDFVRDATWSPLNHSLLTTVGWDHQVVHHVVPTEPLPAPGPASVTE

EC50 [nM] | Structure (SMILES)
280 | C=C(c1cc(F)cc(C(F)F)c1)[C@H]1O[C@@H](n2ccc3c(N)ncnc32)[C@H](O)[C@]1(C)O [Example 82, (2R,3S,4R,5R)-5-(4-amino-7H-pyrrolo[2,3-d]pyrimidin-7-yl)-2-(1-(3-(difluoromethyl)-5-fluorophenyl)vinyl)-3-methyltetrahydrofuran-3,4-diol]
407 | C[C@@]1(O)[C@@H]([C@H](O)c2cccc(Cl)c2F)O[C@@H](n2ccc3c(N)ncnc32)[C@@H]1O [Example 46, 7-[(5R)-5-C-(3-chloro-2-fluorophenyl)-3-C-methyl-beta-D-ribofuranosyl]-7H-pyrrolo[2,3-d]pyrimidin-4-amine]
8960 | C[C@@]1(O)[C@@H]([C@@H](O)c2cc(F)cc(F)c2F)O[C@@H](n2ccc3c(N)ncnc32)[C@@H]1O [Example 53, 7-[(5S)-3-C-methyl-5-C-(2,3,5-trifluorophenyl)-beta-D-ribofuranosyl]-7H-pyrrolo[2,3-d]pyrimidin-4-amine]
219 | C[C@@]1(O)[C@@H]([C@H](O)c2cc(F)c(F)c(C(F)F)c2)O[C@@H](n2ccc3c(N)ncnc32)[C@@H]1O [Example 64, 7-{(5R)-5-C-[3-(difluoromethyl)-4,5-difluorophenyl]-3-C-methyl-beta-D-ribofuranosyl}-7H-pyrrolo[2,3-d]pyrimidin-4-amine]
> 10000 | C[C@@]1(O)[C@@H]([C@@H](O)c2cc(F)c(F)c(C(F)F)c2)O[C@@H](n2ccc3c(N)ncnc32)[C@@H]1O [Example 65, 7-{(5S)-5-C-[3-(difluoromethyl)-4,5-difluorophenyl]-3-C-methyl-beta-D-ribofuranosyl}-7H-pyrrolo[2,3-d]pyrimidin-4-amine]
> 10000 | C[C@@]1(O)[C@@H]([C@@H](O)c2ccc(Cl)c(Cl)c2)O[C@@H](n2ccc3c(N)ncnc32)[C@@H]1O [Example 14, 7-[(5S)-5-C-(3,4-dichlorophenyl)-3-C-methyl-beta-D-ribofuranosyl]-7H-pyrrolo[2,3-d]pyrimidin-4-amine]
32 | C[C@@]1(O)[C@@H]([C@H](O)c2cccc(C(F)F)c2)O[C@@H](n2ccc3c(N)ncnc32)[C@@H]1O [Example 56, 7-{(5R)-5-C-[3-(difluoromethyl)phenyl]-3-C-methyl-beta-D-ribofuranosyl}-7H-pyrrolo[2,3-d]pyrimidin-4-amine]
> 10000 | COc1ccc([C@H](O)[C@H]2O[C@@H](n3ccc4c(N)ncnc43)[C@H](O)[C@]2(C)O)cc1 [Example 33, 7-[(5S)-5-C-(4-methoxyphenyl)-3-C-methyl-beta-D-ribofuranosyl]-7H-pyrrolo[2,3-d]pyrimidin-4-amine]
3240 | C[C@@]1(O)[C@@H]([C@H](O)c2ccc(F)c(F)c2F)O[C@@H](n2ccc3c(N)ncnc32)[C@@H]1O [Example 50, 7-[(5R)-3-C-methyl-5-C-(2,3,4-trifluorophenyl)-beta-D-ribofuranosyl]-7H-pyrrolo[2,3-d]pyrimidin-4-amine]
65 | Cc1ncnc2c1ccn2[C@@H]1O[C@H]([C@@H](C)c2cccc3c2CNCC3)[C@@](C)(O)[C@H]1O [Example 87, (2R,3S,4R,5R)-3-methyl-5-(4-methyl-7H-pyrrolo[2,3-d]pyrimidin-7-yl)-2-((S)-1-(1,2,3,4-tetrahydroisoquinolin-8-yl)ethyl)tetrahydrofuran-3,4-diol]
> 10000 | Cc1ccc([C@H](O)[C@H]2O[C@@H](n3ccc4c(N)ncnc43)[C@H](O)[C@]2(C)O)cc1 [Example 31, 7-[(5S)-3-C-methyl-5-C-(4-methylphenyl)-beta-D-ribofuranosyl]-7H-pyrrolo[2,3-d]pyrimidin-4-amine]
474 | C[C@@]1(O)[C@@H]([C@H](O)c2ccc(F)cc2)O[C@@H](n2ccc3c(N)ncnc32)[C@@H]1O [Example 24, 7-[(5R)-5-C-(4-fluorophenyl)-3-C-methyl-beta-D-ribofuranosyl]-7H-pyrrolo[2,3-d]pyrimidin-4-amine]
227 | C[C@@]1(O)[C@@H]([C@H](O)c2cc(F)c(F)c(F)c2)O[C@@H](n2ccc3c(N)ncnc32)[C@@H]1O [Example 34, 7-[(5R)-3-C-methyl-5-C-(3,4,5-trifluorophenyl)-beta-D-ribofuranosyl]-7H-pyrrolo[2,3-d]pyrimidin-4-amine]
> 10000 | C[C@@]1(O)[C@@H]([C@@H](O)c2cccc(Cl)c2F)O[C@@H](n2ccc3c(N)ncnc32)[C@@H]1O [Example 47, 7-[(5S)-5-C-(3-chloro-2-fluorophenyl)-3-C-methyl-beta-D-ribofuranosyl]-7H-pyrrolo[2,3-d]pyrimidin-4-amine]
> 10000 | C[C@]1(O)[C@@H](O)[C@H](n2ccc3c(N)ncnc32)O[C@@H]1[C@@](C)(O)c1ccnc(C(F)F)c1 [Example 81, 7-{6-deoxy-5-C-[2-(difluoromethyl)pyridin-4-yl]-3-C-methyl-beta-D-allofuranosyl}-7H-pyrrolo[2,3-d]pyrimidin-4-amine]
997 | COc1cccc([C@@H](O)[C@H]2O[C@@H](n3ccc4c(N)ncnc43)[C@H](O)[C@]2(C)O)c1 [Example 36, 7-[(5R)-5-C-(3-methoxyphenyl)-3-C-methyl-beta-D-ribofuranosyl]-7H-pyrrolo[2,3-d]pyrimidin-4-amine]
14 | C[C@@]1(O)[C@@H]([C@H](O)c2cc(Cl)cc(Cl)c2)O[C@@H](n2ccc3c(N)ncnc32)[C@@H]1O [Example 18, 7-[(5R)-5-C-(3,5-dichlorophenyl)-3-C-methyl-beta-D-ribofuranosyl]-7H-pyrrolo[2,3-d]pyrimidin-4-amine]
6550 | C[C@@]1(O)[C@@H]([C@@H](O)c2cc(F)cc(C(F)F)c2F)O[C@@H](n2ccc3c(N)ncnc32)[C@@H]1O [Example 7, (2R,3S,4R,5R)-5-(4-amino-7H-pyrrolo[2,3-d]pyrimidin-7-yl)-2-((S)-(3-(difluoromethyl)-2,5-difluorophenyl)(hydroxy)methyl)-3-methyltetrahydrofuran-3,4-diol]
2710 | C[C@@]1(O)[C@@H]([C@H](O)c2cncc(C(F)F)c2)O[C@@H](n2ccc3c(N)ncnc32)[C@@H]1O [Example 74, 7-{(5R)-5-C-[5-(difluoromethyl)pyridin-3-yl]-3-C-methyl-beta-D-ribofuranosyl}-7H-pyrrolo[2,3-d]pyrimidin-4-amine]
202 | C[C@@]1(O)[C@@H]([C@H](O)c2ccccc2)O[C@@H](n2ccc3c(N)ncnc32)[C@@H]1O [Example 11, 7-[(5R)-3-C-methyl-5-C-phenyl-beta-D-ribofuranosyl]-7H-pyrrolo[2,3-d]pyrimidin-4-amine]
2060 | C[C@@]1(O)[C@@H]([C@H](O)c2cc(C(F)F)ccn2)O[C@@H](n2ccc3c(N)ncnc32)[C@@H]1O [Example 72, 7-{(5R)-5-C-[4-(difluoromethyl)pyridin-2-yl]-3-C-methyl-beta-D-ribofuranosyl}-7H-pyrrolo[2,3-d]pyrimidin-4-amine]
1820 | C[C@@]1(O)[C@@H]([C@H](O)c2ccc(Cl)cc2F)O[C@@H](n2ccc3c(N)ncnc32)[C@@H]1O [Example 42, 7-[(5R)-5-C-(4-chloro-2-fluorophenyl)-3-C-methyl-beta-D-ribofuranosyl]-7H-pyrrolo[2,3-d]pyrimidin-4-amine]
65 | C[C@@]1(O)[C@@H]([C@H](O)c2cc(C(F)F)c(F)c3c2CNCC3)O[C@@H](n2ccc3c(N)ncnc32)[C@@H]1O [Example 8, (2R,3S,4R,5R)-5-(4-amino-7H-pyrrolo[2,3-d]pyrimidin-7-yl)-2-((R)-(6-(difluoromethyl)-5-fluoro-1,2,3,4-tetrahydroisoquinolin-8-yl)(hydroxy)methyl)-3-methyltetrahydrofuran-3,4-diol]
141 | C[C@@]1(O)[C@@H]([C@H](O)c2cccc(F)c2)O[C@@H](n2ccc3c(N)ncnc32)[C@@H]1O [Example 20, 7-[(5R)-5-C-(3-fluorophenyl)-3-C-methyl-beta-D-ribofuranosyl]-7H-pyrrolo[2,3-d]pyrimidin-4-amine]
> 10000 | C[C@@]1(O)[C@@H]([C@@H](O)c2ccc(Cl)cc2F)O[C@@H](n2ccc3c(N)ncnc32)[C@@H]1O [Example 43, 7-[(5S)-5-C-(4-chloro-2-fluorophenyl)-3-C-methyl-beta-D-ribofuranosyl]-7H-pyrrolo[2,3-d]pyrimidin-4-amine]
141 | C[C@@]1(O)[C@@H]([C@H](O)c2cc(F)cc(F)c2F)O[C@@H](n2ccc3c(N)ncnc32)[C@@H]1O [Example 52, 7-[(5R)-3-C-methyl-5-C-(2,3,5-trifluorophenyl)-beta-D-ribofuranosyl]-7H-pyrrolo[2,3-d]pyrimidin-4-amine]
360 | C[C@]1(O)[C@@H](O)[C@H](n2ccc3c(N)ncnc32)O[C@@H]1[C@](C)(O)c1ccnc(C(F)F)c1 [Example 80, 7-{6-deoxy-5-C-[2-(difluoromethyl)pyridin-4-yl]-3-C-methyl-alpha-L-talofuranosyl}-7H-pyrrolo[2,3-d]pyrimidin-4-amine]
> 10000 | Cc1cccc([C@H](O)[C@H]2O[C@@H](n3ccc4c(N)ncnc43)[C@H](O)[C@]2(C)O)c1 [Example 39, 7-[(5S)-3-C-methyl-5-C-(3-methylphenyl)-beta-D-ribofuranosyl]-7H-pyrrolo[2,3-d]pyrimidin-4-amine]
